The source of these data is patent publication US8507562B2, “Synthesis of (1)-beta-elemene, (-)-beta-elemenal, (-)-beta-elemenol, (-)-beta-elemene fluoride and their analogues, intermediates, and composition and uses thereof” (HYWE Pharmaceuticals, Inc., priority 2004, dated 2013).

Broadly, the IC50 is the concentration that gives 50% inhibition.

For experiment [1], the system named is human glioma cells. The experiment is described as follows: MTT assay, elemene analogs. Type of experiment: cell-based. As to conditions: for IC50: Homo sapiens, Glioma cell.
Protocol: (§1) The MTT assay is a commonly used method in evaluation of cell survival, based on the ability of viable cells to convert MTT, a soluble tetrazolium salt [3-(4,5-dimethylthuazole-2-yl)-2,5 diphenyl tetrazolium bromide], into an insoluble formazan precipitate, which is quantitated by spectrophotometry following solubilization in dimethyl sulfoxide (DMSO).
(§2) The cells were then solubilized in 125 μl of DMSO and absorbance readings were taken using a 96-well Opsys MRI Microplate Reader (ThermoLabsystems; Chantilly, Va.). The amount of MTT dye reduction was calculated based on the difference between absorbance at 570 nm and at 630 nm. Cell viability in treated cells was expressed as the amount of dye reduction relative to that of untreated control cells. The wells which contained only medium and 10 μl of MTT were used as blanks for the plate reader. Three sets of experiments were performed in 8-12 wells for each treatment.
For experiment [2], the system named is A-172 brain tumor. The experiment can be described thus: MTT survival assay. The class given is cell-based, human. As to conditions: Homo sapiens, A 172, read-out: IC50.
Protocol: as §1, §2
(§3) The cells were then solubilized in 125 μl of DMSO and absorbance readings were taken using a 96-well Opsys MRI Microplate Reader (ThermoLabsystems; Chantilly, Va.). The amount of MTT dye reduction was calculated based on the difference between absorbance at 570 nm and at 630 nm. Cell viability in treated cells was expressed as the amount of dye reduction relative to that of untreated control cells. The wells which contained only medium and 10 μI of MTT were used as blanks for the plate reader. Three sets of experiments were performed in 8-12 wells for each treatment.
The subject of experiment [3] is U-87 brain tumor. The experiment can be described thus: MTT survival assay. The class given is cell-based, human. As to conditions: Homo sapiens, read-out: IC50.
Protocol: as §1, §2, §3
Experiment [4] deals with STTG1 brain tumor. The experiment can be described thus: MTT survival assay. Type of experiment: cell-based, human. As to conditions: Homo sapiens, read-out: IC50. (Tetrazolium assays rely on reduction of a dye to a coloured formazan, in cell work by metabolically active cells.)
Protocol: as §1, §2
Experiment [5] has as its system H-460 lung cancer. The experiment is described as follows: MTT survival assay. The class given is cell-based, human. As to conditions: 2 × 10^4 cells/ml.
Protocol: as §1, §2
(§4) In brief, carcinoma cells treated with test articles alone, in 96-well tissue culture dishes were incubated with MTT (2 μg/ml) for 4 h. The cells were then solubilized in 125 μl of DMSO and absorbance readings were taken using a 96-well Opsys MRI Microplate Reader (ThermoLabsystems; Chantilly, Va.). The amount of MTT dye reduction was calculated based on the difference between absorbance at 570 nm and at 630 nm. Cell viability in treated cells was expressed as the amount of dye reduction relative to that of untreated control cells. The wells that contained only medium and 10 μl of MTT were used as blanks for the plate reader.
as §3
For experiment [6], the system named is A549 lung cancer. The experiment can be described thus: MTT survival assay. As to conditions: 2 × 10^4 cells/ml.
Protocol: as §1, §4
Experiment [7] concerns human breast cancer Bcap-37. As to conditions: 30 mg/kg/time ip × 7 qd.
Experiment [8] concerns human breast cancer ao10/17. As to conditions: 30 mg/kg/time ip × 7 qd.
In experiment [9] the test system is human lung cancer A549. As to conditions: 30 mg/kg/time ip × 7 qd.
For experiment [10], the system named is human colon cancer HCT-8. As to conditions: 30 mg/kg/time ip × 7 qd.
For experiment [11], the system named is human prostate cancer PC-3M. As to conditions: 30 mg/kg/time ip × 7 qd.
The test system of experiment [12] is human liver cancer QGY. As to conditions: 30 mg/kg/time ip × 7 qd.
Experiment [13] deals with Colon Cancer Cells Colo 205. The experiment can be described thus: MTS cell viability assay. As to conditions: Colo 205, drug alone.
Protocol: (§5) Cells were maintained at 37° C. in a humidified atmosphere including 5% CO2. […] Drugs were dissolved in 100% DMSO and then diluted in medium for experiments.
The subject of experiment [14] is Colon Cancer Cells HCT-15. The experiment can be described thus: MTS cell viability assay. As to conditions: combinations with Elemene 160 μg/ml, n = 8.
Protocol: as §5
The test system of experiment [15] is Colon Cancer Cells HCT-116. The experiment is described as follows: MTS cell viability assay. The class given is cell-based, human. As to conditions: combinations with Elemene 160 μg/ml, n = 8.

Values after ≈ are worked out from the molar mass of the structure shown. Read-outs that look alike come from different tables or passages of the source. Where only a bound is given, the exact number is not on record here.

Turning to “(S)-5-Isopropenyl-1,2-dimethyl-cyclohex-2-enol, and (R)-5-Isopropenyl-1,2-dimethyl-cyclohex-2-enol [Lr-5]”, the “IC50 in human glioma cells” value in experiment [1] (24 hr), in experiment [1] (48 hr) and in [1] (72 hr) was over 200 µg/mL in each case.

As to `C=C[C@]1(C)CC[C@@H]([C@](C)(O)CO)C[C@H]1C(=C)C` [Lr-2, (S)-2-((1R,3S,4S)-3-isopropenyl-4-methyl-4-vinyl-cyclohexyl)-propane-1,2-diol], the IC50 was determined as 122 µg/mL (≈ 512 µM) in experiment [2] (A172, 24 h); 96 µg/mL (≈ 403 µM) in [2] (A172, 48 h); 65 µg/mL (≈ 273 µM) in experiment [2] (A172, 72 h); 90 µg/mL (≈ 378 µM) in experiment [3] (U87, 24 h); 94 µg/mL (≈ 394 µM) in experiment [3] (U87, 48 h); 87 µg/mL (≈ 365 µM) in [3] (U87, 72 h). Moreover, the IC50 was 89.6 µg/mL (≈ 376 µM) in experiment [1] (48 hr); 90.9 µg/mL (≈ 381 µM) in experiment [1] (72 hr); 112 µg/mL (≈ 470 µM) in [4] (STTG1, 24 h); 98 µg/mL (≈ 411 µM) in [4] (STTG1, 48 h); 97 µg/mL (≈ 407 µM) in experiment [4] (STTG1, 72 h).

Regarding (−)-Beta-elemene Fluoride, the IC50 in [5] (H460, 24 h) was found to be 71.3 µg/mL; in experiment [5] (H460, 48 h) it was 62.5 µg/mL; in experiment [5] (H460, 72 h), 68.6 µg/mL; in [6] (A549, 24 h), 83.0 µg/mL; in experiment [6] (A549, 48 h), 64.5 µg/mL; in experiment [6] (A549, 72 h), 71.4 µg/mL.

In the case of “(S)-1,5-Diisopropenyl-2-methyl-cyclohex-2-enol, and (R)-1,5-Diisopropenyl-2-methyl-cyclohex-2-enol [Lr-4]”, the “IC50 in human glioma cells” value in experiment [1] (24 hr), in [1] (48 hr) and in experiment [1] (72 hr) was over 200 µg/mL each time.

For the compound `O=P1(N(CCCl)CCCl)NCCCO1` (stereo not shown) [CTX, Cyclophosphamide, reference compound], the “Inhibition Rate %” value stood at 84.23% in experiment [7]; 87.50% in [8]; 85.13% in [9]; 88.11% in experiment [10]; 87.27% in [11]; 89.37% in [12]. Further, the “Tumor Weight (g) X ± SD” value in experiment [7] came to 0.205 ± 0.12 g; in experiment [8], 0.15 ± 0.08 g; in experiment [9], 0.29 ± 0.07 g; in experiment [10], 0.170 ± 0.08 g; in experiment [11], 0.205 ± 0.1 g; in [12], 0.22 ± 0.12 g.

As for `C=C[C@]1(C)CC[C@@H](C(=C)C=O)C[C@H]1C(=C)C` [(−)-beta-elemenal, (−)-Beta-elemenal], the IC50 worked out at 27.6 µg/mL (≈ 126 µM) in [5] (H460, 24 h); 25.5 µg/mL (≈ 117 µM) in experiment [5] (H460, 48 h); 11.0 µg/mL (≈ 50.4 µM) in experiment [5] (H460, 72 h); 45.6 µg/mL (≈ 209 µM) in experiment [6] (A549, 24 h); 35.0 µg/mL (≈ 160 µM) in experiment [6] (A549, 48 h); 35.0 µg/mL (≈ 160 µM) in experiment [6] (A549, 72 h).

Consider `C=C[C@]1(C)CC[C@@H]([C@@](C)(O)CO)C[C@H]1C(=C)C` (single isomer, unassigned) [Lr-1], for which the IC50 in experiment [2] (A172, 24 h) stood at 106 µg/mL (≈ 445 µM); in experiment [2] (A172, 48 h), 94 µg/mL (≈ 394 µM); in experiment [2] (A172, 72 h) it was 90 µg/mL (≈ 378 µM); in experiment [3] (U87, 24 h), 98 µg/mL (≈ 411 µM); in [3] (U87, 48 h) it was 94 µg/mL (≈ 394 µM); in [3] (U87, 72 h) it was 89 µg/mL (≈ 373 µM). Also, the IC50 in experiment [4] (STTG1, 24 h) amounted to 108 µg/mL (≈ 453 µM); in experiment [4] (STTG1, 48 h) it was 98 µg/mL (≈ 411 µM); in experiment [4] (STTG1, 72 h) it was 94 µg/mL (≈ 394 µM).

`C=C(C)[C@H]1CC=C(C)C(=O)C1` [Lr-9, (S)-5-Isopropenyl-2-methyl-cyclohex-2-enone]: the IC50 in experiment [1] (24 hr), in experiment [1] (48 hr) and in [1] (72 hr) was over 200 µg/mL throughout.

Consider “(1S,5S)-3,5-Diisopropenyl-2-methyl-cyclohex-2-enol, and (1R,5S)-3,5-Diisopropenyl-2-methyl-cyclohex-2-enol [Lr-7]”, for which the “IC50 in human glioma cells” value in [1] (24 hr), in experiment [1] (48 hr) and in experiment [1] (72 hr) was over 200 µg/mL in each case.

As to `C=C[C@]1(C)CC[C@@H](C(C)=O)C[C@H]1C(=C)C` [Lr-3, 1-((1R,3S,4S)-3-Isopropenyl-4-methyl-4-vinyl-cyclohexyl)-ethanone], the half-inhibitory concentration (IC50) in experiment [2] (A172, 24 h) was over 140 µg/mL; in experiment [2] (A172, 48 h) it was 134 µg/mL (≈ 649 µM); in experiment [2] (A172, 72 h) it was 106 µg/mL (≈ 514 µM); in experiment [3] (U87, 24 h) it was 118 µg/mL (≈ 572 µM); in [3] (U87, 48 h), over 120 µg/mL; in experiment [3] (U87, 72 h), 120 µg/mL (≈ 582 µM). In addition, the IC50 in experiment [1] (24 hr) was over 200 µg/mL; in [1] (48 hr) it was over 200 µg/mL; in experiment [1] (72 hr), over 200 µg/mL; in experiment [4] (STTG1, 24 h), 108 µg/mL (≈ 523 µM); in experiment [4] (STTG1, 48 h) it was over 120 µg/mL; in [4] (STTG1, 72 h), 110 µg/mL (≈ 533 µM).

For the compound “(1R,5S)-1-Isobutyl-3,5-diisopropenyl-2-methyl-cyclohex-2-enol, and (1S,5S)-1-Isobutyl-3,5-diisopropenyl-2-methyl-cyclohex-2-enol [Lr-8]”, the “IC50 in human glioma cells” value was found to be 106.2 µg/mL in experiment [1] (24 hr), 105.2 µg/mL in experiment [1] (48 hr) and 103.3 µg/mL in experiment [1] (72 hr).

With `O=C1[O][Pt]2([NH][C@@H]3CCCC[C@H]3[NH]2)[O]C1=O` [Oxaliplatin], the IC50 is 166 ± 7.51 µg/mL in experiment [13] (Time 4 hr, n = 8); 21.8 ± 1.06 µg/mL in [13] (Time 4 hr/24 hr × 2, n = 8); 9.90 ± 1.01 µg/mL in experiment [13] (Time 4 hr/24 hr × 3, n = 8); 29.5 ± 7.05 µg/mL in experiment [13] (Time 4 hr/24 hr, n = 8); 124 ± 13.1 µg/mL in experiment [13] (Time 8 hr, n = 8); 69.7 ± 12.7 µg/mL in [13] (Time 12 hr, n = 8). Moreover, the IC50 in [13] (Time 24 hr, n = 8) worked out at 25.2 ± 7.85 µg/mL; in experiment [13] (Time 48 hr, n = 8), 20.4 ± 2.14 µg/mL; in [13] (Time 72 hr, n = 8) it was 13.4 ± 2.42 µg/mL; in experiment [14] (HCT-15, 4 hr/24 hr × 2), 16.4 ± 4.64 µg/mL; in experiment [14] (HCT-15, 4 hr/24 hr × 3), 11.8 ± 3.69 µg/mL; in experiment [14] (HCT-15, 4 hr/24 hr) it was 22.0 ± 7.66 µg/mL. Besides, the IC50 in experiment [14] (HCT-15, 4 hr) came out at 28.4 ± 6.80 µg/mL; in experiment [14] (HCT-15, 8 hr) it was 25.7 ± 5.61 µg/mL; in experiment [14] (HCT-15, 12 hr) it was 19.3 ± 3.21 µg/mL; in [14] (HCT-15, 48 hr), 14.5 ± 2.66 µg/mL; in experiment [14] (HCT-15, 72 hr) it was 14.9 ± 3.33 µg/mL; in experiment [15] (HCT-116, 4 hr/24 hr × 2), 106 ± 15.7 µg/mL. Also, the IC50 in experiment [15] (HCT-116, 4 hr/24 hr × 3) turned out to be 65.7 ± 7.02 µg/mL; in experiment [15] (HCT-116, 4 hr/24 hr), 148 ± 13.7 µg/mL; in [15] (HCT-116, 4 hr) it was 373 ± 69.6 µg/mL; in experiment [15] (HCT-116, 8 hr) it was 92.2 ± 15.7 µg/mL; in [15] (HCT-116, 12 hr), 74.4 ± 6.28 µg/mL; in experiment [15] (HCT-116, 24 hr), 68.9 ± 7.92 µg/mL. Besides, the IC50 in [15] (HCT-116, 48 hr) was 64.5 ± 7.89 µg/mL; in experiment [15] (HCT-116, 72 hr), 57.2 ± 10.5 µg/mL.

`C=C(C)C1=C(C)C(=O)C[C@@H](C(=C)C)C1` [Lr-6, (S)-3,5-Diisopropenyl-2-methyl-cyclohex-2-enone]: the IC50 in experiment [1] (24 hr), in experiment [1] (48 hr) and in [1] (72 hr) was over 200 µg/mL each time.

As for `C=C(C)[C@@H]1CC=C(C)C(=O)C1` [Lr-10, (R)-5-Isopropenyl-2-methyl-cyclohex-2-enone], the IC50 in experiment [1] (24 hr), in experiment [1] (48 hr) and in experiment [1] (72 hr) was over 200 µg/mL throughout.
